Test results as given in patent US20180193490A1, “Beta Amyloid Staging” (GE HEALTHCARE LIMITED, priority 2015, published 2018).

Target: T1, beta amyloid (Aβ) plaques in the brain (Homo sapiens, UniProt P05067)
T1 construct: from tissue; host or cells: brain of living subjects (cortex and striatum), in vivo PET
Test: Provisional SUVR analysis of GE067-026 PET images (Cortex ID, cortex and striatal VOIs)
Type: in vivo
Conditions: for Cases C+S+ by SUVR analysis of cortical and striatal beta amyloid uptake / Cases C+S− by SUVR analysis of cortical and striatal beta amyloid uptake / Cases C−S+ by SUVR analysis of cortical and striatal beta amyloid uptake / Cases C−S− by SUVR analysis of cortical and striatal beta amyloid uptake: SUVRpons thresholds
Description: Some work has been performed to assess the quantitative SUVR measures from the GE067-026 cohort.
In an automated SUVR assessment methodology using GE software Cortex ID (J Lilja) PET images were quantitated using separate cortex and striatal VOIs. The SUVRs were determined for the cortical and striatal values using 3 different reference regions; whole cerebellum, cerebellar grey and pons.
Thresholding was determined by multiple methods to identify which method provided the greatest accuracy (See Setting SUVR thresholds)
The thresholds determined by ROC analysis for Phase 3 or above being abnormal gave the best sensitivity and specificity for cortical assessments. A similar approach gave the best sensitivity and specificity for the striatal assessments. Using the whole cerebellum as a reference region or pons as the reference region gave the best sensitivity and specificity (see Table 4).
Combining these thresholds to determine cortical and striatal positivity based upon SUVRpons values gave similar results to those see by BIE assessment. Of 5 C+S− cases 3 […] were Thal phase 3.
SUVR thresholds were set using two methods. • (1) Statistical determination • (2) Receiver operator characteristics
For statically determined thresholds the algorithm depicted in FIG. 1 was applied. Briefly, all cases were identified as negative or positive based on histopathology. For the cortex this was based on the GE067-026 standard of truth^2—abnormal or normal based on any regional Bielschowsky score>1.5=abnormal and all regional scores≤1.5=normal. For the striatum this was based on the identification of “Frequent” plaques by amyloid-β IHC (4G8). The threshold determinations are calculated in the file Cortex ID SUVR thresholds.xlsx. ^2 For the GE067-007 and -026 autopsy trials the primary endpoint was Bielschowsky silver stain (BSS) scores of CERAD based neuritic plaque density. 0=none, 1=sparse, 2=moderate and 3=frequent. Multiple measures were averaged and the arithmetic mean between none/sparse (normal) and moderate/frequent (abnormal=1.5. Any case with a regional BSS score>1.5 was deemed abnormal.
The SUVR means and standard deviations were calculated for normal and abnormal subjects for each of the SUVR measures; Cortex and striatum and for each of the SUVR reference regions. The threshold was determined to be the SUVR value at which the fractional standard deviation is equal between the two population means i.e. when the normal mean plus y times the normal SD is equal to the abnormal mean minus y times the abnormal SD.
A statistically based threshold was determined for abnormal and normal cases (based on histopathology) and applied to cortical and striatal SUVRs separately.
A variant of the above threshold was determined based upon the Thal phases. Thus the threshold for the cortex and striatum was determined between phase 0 and 1, between phase 1 and phase 2 . . . etc. This gave 15 threshold values (5 to discriminate each phase and 1 for each of the 3 reference regions; 15 in total)
This is an empirically determined threshold that by definition identifies the threshold that gives the best sensitivity and specificity.
Receiver operator characteristics analysis determines the sensitivity and specificity given a variable threshold. The most appropriate threshold is then determined by the maximum of the sum of the sensitivity and specificity.

T1 sequence (P05067 672-713 limits assumed): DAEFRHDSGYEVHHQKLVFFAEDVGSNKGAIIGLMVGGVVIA

Cases C+S+ by SUVR analysis of cortical and striatal beta amyloid uptake (Amyloid Thal phase 0): 0
Cases C+S− by SUVR analysis of cortical and striatal beta amyloid uptake (Amyloid Thal phase 0): 0
Cases C−S+ by SUVR analysis of cortical and striatal beta amyloid uptake (Amyloid Thal phase 0): 0
Cases C−S− by SUVR analysis of cortical and striatal beta amyloid uptake (Amyloid Thal phase 0): 7
Cases C+S+ by SUVR analysis of cortical and striatal beta amyloid uptake (Amyloid Thal phase 1): 0
Cases C+S− by SUVR analysis of cortical and striatal beta amyloid uptake (Amyloid Thal phase 1): 0
Cases C−S+ by SUVR analysis of cortical and striatal beta amyloid uptake (Amyloid Thal phase 1): 0
Cases C−S− by SUVR analysis of cortical and striatal beta amyloid uptake (Amyloid Thal phase 1): 8
Cases C+S+ by SUVR analysis of cortical and striatal beta amyloid uptake (Amyloid Thal phase 2): 0
Cases C+S− by SUVR analysis of cortical and striatal beta amyloid uptake (Amyloid Thal phase 2): 0
Cases C−S+ by SUVR analysis of cortical and striatal beta amyloid uptake (Amyloid Thal phase 2): 0
Cases C−S− by SUVR analysis of cortical and striatal beta amyloid uptake (Amyloid Thal phase 2): 5
Cases C+S+ by SUVR analysis of cortical and striatal beta amyloid uptake (Amyloid Thal phase 3): 1
Cases C+S− by SUVR analysis of cortical and striatal beta amyloid uptake (Amyloid Thal phase 3): 3
Cases C−S+ by SUVR analysis of cortical and striatal beta amyloid uptake (Amyloid Thal phase 3): 0
Cases C−S− by SUVR analysis of cortical and striatal beta amyloid uptake (Amyloid Thal phase 3): 8
Cases C+S+ by SUVR analysis of cortical and striatal beta amyloid uptake (Amyloid Thal phase 4): 16
Cases C+S− by SUVR analysis of cortical and striatal beta amyloid uptake (Amyloid Thal phase 4): 1
Cases C−S+ by SUVR analysis of cortical and striatal beta amyloid uptake (Amyloid Thal phase 4): 2
Cases C−S− by SUVR analysis of cortical and striatal beta amyloid uptake (Amyloid Thal phase 4): 3
Cases C+S+ by SUVR analysis of cortical and striatal beta amyloid uptake (Amyloid Thal phase 5): 44
Cases C+S− by SUVR analysis of cortical and striatal beta amyloid uptake (Amyloid Thal phase 5): 1
Cases C−S+ by SUVR analysis of cortical and striatal beta amyloid uptake (Amyloid Thal phase 5): 0
Cases C−S− by SUVR analysis of cortical and striatal beta amyloid uptake (Amyloid Thal phase 5): 1
Sum of sensitivity and specificity (Average over all thresholds, reference region Cer): 163%
Sum of sensitivity and specificity (Average over all thresholds, reference region Pons): 168%
Sum of sensitivity and specificity (Average over all thresholds, reference region Wcer): 168%
Phase 3 cases identified as C+S− between the two methods (BIE and SUVR) (BIE and SUVR combined): 6
Sum of sensitivity and specificity (CTX BSS ROC abnormality threshold, Average of reference regions): 177%
Sum of sensitivity and specificity (CTX BSS ROC abnormality threshold, reference region Cer): 176%
Sum of sensitivity and specificity (CTX BSS ROC abnormality threshold, reference region Pons): 174%
Sum of sensitivity and specificity (CTX BSS ROC abnormality threshold, reference region Wcer): 180%
Sum of sensitivity and specificity (CTX Max Mirra ROC abnormality threshold, Average of reference regions): 170%
Sum of sensitivity and specificity (CTX Max Mirra ROC abnormality threshold, reference region Cer): 170%
Sum of sensitivity and specificity (CTX Max Mirra ROC abnormality threshold, reference region Pons): 167%
Sum of sensitivity and specificity (CTX Max Mirra ROC abnormality threshold, reference region Wcer): 173%
Sum of sensitivity and specificity (CTX Mirra mode ROC abnormality threshold, Average of reference regions): 172%
Sum of sensitivity and specificity (CTX Mirra mode ROC abnormality threshold, reference region Cer): 170%
Sum of sensitivity and specificity (CTX Mirra mode ROC abnormality threshold, reference region Pons): 173%
Sum of sensitivity and specificity (CTX Mirra mode ROC abnormality threshold, reference region Wcer): 174%
Sum of sensitivity and specificity (CTX Phase1 threshold, Average of reference regions): 139%
Sum of sensitivity and specificity (CTX Phase1 threshold, reference region Cer): 142%
Sum of sensitivity and specificity (CTX Phase1 threshold, reference region Pons): 129%
Sum of sensitivity and specificity (CTX Phase1 threshold, reference region Wcer): 145%
Sum of sensitivity and specificity (CTX Phase2 threshold, Average of reference regions): 155%
Sum of sensitivity and specificity (CTX Phase2 threshold, reference region Cer): 153%
Sum of sensitivity and specificity (CTX Phase2 threshold, reference region Pons): 158%
Sum of sensitivity and specificity (CTX Phase2 threshold, reference region Wcer): 152%
Sum of sensitivity and specificity (CTX Phase 3 + ROC abnormality threshold, Average of reference regions): 183%
Sum of sensitivity and specificity (CTX Phase 3 + ROC abnormality threshold, reference region Cer): 180%
Sum of sensitivity and specificity (CTX Phase 3 + ROC abnormality threshold, reference region Pons): 186%
Sum of sensitivity and specificity (CTX Phase 3 + ROC abnormality threshold, reference region Wcer): 182%
Sum of sensitivity and specificity (CTX Phase3 threshold, Average of reference regions): 161%
Sum of sensitivity and specificity (CTX Phase3 threshold, reference region Cer): 153%
Sum of sensitivity and specificity (CTX Phase3 threshold, reference region Pons): 166%
Sum of sensitivity and specificity (CTX Phase3 threshold, reference region Wcer): 166%
Sum of sensitivity and specificity (CTX Phase 4 + ROC abnormality threshold, Average of reference regions): 179%
Sum of sensitivity and specificity (CTX Phase 4 + ROC abnormality threshold, reference region Cer): 176%
Sum of sensitivity and specificity (CTX Phase 4 + ROC abnormality threshold, reference region Pons): 182%
Sum of sensitivity and specificity (CTX Phase 4 + ROC abnormality threshold, reference region Wcer): 180%
Sum of sensitivity and specificity (CTX Phase4 threshold, Average of reference regions): 177%
Sum of sensitivity and specificity (CTX Phase4 threshold, reference region Cer): 173%
Sum of sensitivity and specificity (CTX Phase4 threshold, reference region Pons): 179%
Sum of sensitivity and specificity (CTX Phase4 threshold, reference region Wcer): 179%
Sum of sensitivity and specificity (CTX Phase5 threshold, Average of reference regions): 136%
Sum of sensitivity and specificity (CTX Phase5 threshold, reference region Cer): 132%
Sum of sensitivity and specificity (CTX Phase5 threshold, reference region Pons): 142%
Sum of sensitivity and specificity (CTX Phase5 threshold, reference region Wcer): 133%
Sum of sensitivity and specificity (CTX abnormality statistical threshold, Average of reference regions): 176%
Sum of sensitivity and specificity (CTX abnormality statistical threshold, reference region Cer): 174%
Sum of sensitivity and specificity (CTX abnormality statistical threshold, reference region Pons): 175%
Sum of sensitivity and specificity (CTX abnormality statistical threshold, reference region Wcer): 180%
Sum of sensitivity and specificity (STR Phase1 threshold, Average of reference regions): 144%
Sum of sensitivity and specificity (STR Phase1 threshold, reference region Cer): 135%
Sum of sensitivity and specificity (STR Phase1 threshold, reference region Pons): 147%
Sum of sensitivity and specificity (STR Phase1 threshold, reference region Wcer): 150%
Sum of sensitivity and specificity (STR Phase2 threshold, Average of reference regions): 138%
Sum of sensitivity and specificity (STR Phase2 threshold, reference region Cer): 135%
Sum of sensitivity and specificity (STR Phase2 threshold, reference region Pons): 135%
Sum of sensitivity and specificity (STR Phase2 threshold, reference region Wcer): 144%
Sum of sensitivity and specificity (STR Phase3 threshold, Average of reference regions): 173%
Sum of sensitivity and specificity (STR Phase3 threshold, reference region Cer): 164%
Sum of sensitivity and specificity (STR Phase3 threshold, reference region Pons): 178%
Sum of sensitivity and specificity (STR Phase3 threshold, reference region Wcer): 179%
Sum of sensitivity and specificity (STR Phase4 threshold, Average of reference regions): 183%
Sum of sensitivity and specificity (STR Phase4 threshold, reference region Cer): 180%
Sum of sensitivity and specificity (STR Phase4 threshold, reference region Pons): 186%
Sum of sensitivity and specificity (STR Phase4 threshold, reference region Wcer): 183%
Sum of sensitivity and specificity (STR Phase5 threshold, Average of reference regions): 158%
Sum of sensitivity and specificity (STR Phase5 threshold, reference region Cer): 151%
Sum of sensitivity and specificity (STR Phase5 threshold, reference region Pons): 165%
Sum of sensitivity and specificity (STR Phase5 threshold, reference region Wcer): 157%
Sum of sensitivity and specificity (STR ROC abnormality threshold, Average of reference regions): 187%
Sum of sensitivity and specificity (STR ROC abnormality threshold, reference region Cer): 185%
Sum of sensitivity and specificity (STR ROC abnormality threshold, reference region Pons): 188%
Sum of sensitivity and specificity (STR ROC abnormality threshold, reference region Wcer): 187%
Sum of sensitivity and specificity (STR abnormality statistical threshold, Average of reference regions): 184%
Sum of sensitivity and specificity (STR abnormality statistical threshold, reference region Cer): 182%
Sum of sensitivity and specificity (STR abnormality statistical threshold, reference region Pons): 187%
Sum of sensitivity and specificity (STR abnormality statistical threshold, reference region Wcer): 185%
Share of C+S− cases that were Thal phase 3 (SUVRpons values): 66%
C+S− cases by SUVR thresholds (SUVRpons values, all Thal phases): 5
Thal phase 3 C+S− cases by SUVR analysis in common with those identified by BIE assessment (of the 3 Thal phase 3 C+S− cases by SUVR): two
SMILES: CNc1ccc(-c2nc3ccc(O)cc3s2)cc1F [Flutemetamol]
